Measured values reported in patent publication US9975861B2, “Dual inhibitor compounds for use in the treatment of neurodegenerative disorders and alzheimer's disease” (FONDAZIONE ISTITUTO ITALIANO DI TECNOLOGIA, priority 2014, dated 2018).

Legend:
[1] = tested on: neurosphere cultures of primary rat neural stem cells; assay: Neurosphere cultures, immunocytochemistry for neural markers; format: cell-based; conditions: 10 μM during a week; compared to control (FIG. 3)
From the text: Neurosphere (NS) cultures were derived from the hippocampus of adult rats and induced to proliferate using established passaging methods to achieve optimal cellular expansion according to published protocols [Ferron, S. R.; Andreu-Agullo, C.; Mira, H.; Sanchez, P.; Marques-Torrejon, M. A.; Farinas, I. A combined ex/in vivo assay to detect effects of exogenously added factors in neural stem cells. Nature Protoc. 2007, 2, 849-859]. Rats were decapitated, brains removed, and the hippocampus dissected as described [Morales-Garcia, J. A.; Luna-Medina, R.; Alfaro-Cervello, C.; Cortes-Canteli, M.; Santos, A.; Garcia-Verdugo, J. M.; Perez-Castillo, A. Peroxisome proliferator-activated receptor gamma ligands regulate neural stem cell proliferation and differentiation in vitro and in vivo. Glia 2011, 59, 293-307]. Briefly, cells were seeded into 12-well dishes and cultured in DMEM/F12 (1:1, Invitrogen) containing 10 ng/mL epidermal growth factor (EGF, Peprotech, London, UK), 10 ng/mL fibroblast growth factor (FGF, Peprotech), and B27 medium (Gibco). After 3 days in culture, NS were cultivated in the presence or absence of the indicated compounds (10 μM) during a week. After that, NS from 10-day old cultures were plated for 72 hours onto 100 μg/mL poly-L-lysine-coated coverslips in the absence of exogenous growth factors.
Neurogenesis is a crucial property for new AD-modifying drugs, since it confers the potential to increase endogenous regeneration as a repair mechanism in the damaged brain, and reduce neuronal loss and degeneration. Considering that GSK-3β inhibition is reported to regulate and increase neurogenesis [Lange, C.; Mix, E.; Frahm, J.; Glass, A.; Muller, J.; Schmitt, O.; Schmole, A. C.; Klemm, K.; Ortinau, S.; Hubner, R.; Frech, M. J.; Wree, A.; Rolfs, A. Small molecule GSK-3 inhibitors increase neurogenesis of human neural progenitor cells. Neurosci. […]

β-secretase (BACE-1) = β-secretase (BACE-1) (Homo sapiens (Human), UniProt P56817); assay: Inhibition of BACE-1 (fluorogenic APP-mimicking peptide substrate); conditions: BACE-1 IC50 (μM), substrate 3 μM, 1 hour pre-incubation at rt, 15 minutes at 37° C.
Method: β-secretase (BACE-1, Sigma-Aldrich) inhibition studies were performed by employing a peptide mimicking APP sequence as substrate (Methoxycoumarin-[sequence]dinitrophenyl, M-2420, Bachem, Germany). The following procedure was employed: 5 μL of test compounds (or DMSO, if preparing a control well) were pre-incubated with 175 μL of enzyme (in 20 mM sodium acetate containing 3-[(3-Cholamidopropyl)dimethylammonio]-1-propanesulfonate (CHAPS) 0.1% w/v) for 1 hour at rt. The substrate (3 μM, final concentration) was then added and left to react for 15 minutes at 37° C. The fluorescence signal was read at λem=405 nm (λexc=320 nm) using a Fluoroskan Ascent. […] The fluorescence intensities with and without inhibitor were compared and the percent inhibition due to the presence of test compounds was calculated. The background signal was measured in control wells containing all the reagents, except BACE-1 and subtracted. The % inhibition due to the presence of increasing test compound concentration was calculated by the following expression: 100−(IFi/IFo×100) where IFi and IFo are the fluorescence intensities obtained for BACE-1 in the presence and in the absence of inhibitor, respectively. […] The linear regression parameters were determined and the IC50 extrapolated (GraphPad Prism 4.0, GraphPad Software Inc.).

Human recombinant GSK-3β = Human recombinant GSK-3β (Homo sapiens (Human), UniProt P49841); assay: Inhibition of GSK-3β (Kinase-Glo luminescent kinase assay); format: biochemical; conditions: 1 μM ATP, 25 μM substrate, 30 minutes at 30° C.
Method: Human recombinant GSK-3β was purchased from Millipore (Millipore Iberica S.A.U.) The prephosphorylated polypeptide substrate was purchased from Millipore (Millipore Iberica SAU). Kinase-Glo Luminescent Kinase Assay was obtained from Promega (Promega Biotech Iberica, SL). ATP and all other reagents were from Sigma-Aldrich. Assay buffer contained 50 mM 4-(2-hydroxyethyl)-1-piperazineethanesulfonic acid (HEPES) (pH 7.5), 1 mM ethylenediaminetetraacetic acid (EDTA), 1 mM ethylene glycol tetraacetic acid (EGTA), and 15 mM magnesium acetate. The method developed by Baki was followed [Baki et al. Assay and Drug Development Technologies 2007, 5(1),75-83] to analyze the inhibition of GSK-3β. Kinase-Glo assays were performed in assay buffer using white 96-well plates. In a typical assay, 10 μL (10 μM) of test compound (dissolved in DMSO at 1 mM concentration and diluted in advance in assay buffer to the desired concentration) and 10 μL (20 ng) of enzyme were added to each well followed by 20 μL of assay buffer containing 25 μM substrate and 1 μM adenosine triphosphate (ATP). […] After a 30 minutes incubation at 30° C., the enzymatic reaction was stopped with 40 μL of Kinase-Glo reagent. Glow-type luminescence was recorded after 10 minutes using a Fluoroskan Ascent multimode reader.
The activity is proportional to the difference of the total and consumed ATP.

Chain of β-secretase (BACE-1) (P56817 46-501): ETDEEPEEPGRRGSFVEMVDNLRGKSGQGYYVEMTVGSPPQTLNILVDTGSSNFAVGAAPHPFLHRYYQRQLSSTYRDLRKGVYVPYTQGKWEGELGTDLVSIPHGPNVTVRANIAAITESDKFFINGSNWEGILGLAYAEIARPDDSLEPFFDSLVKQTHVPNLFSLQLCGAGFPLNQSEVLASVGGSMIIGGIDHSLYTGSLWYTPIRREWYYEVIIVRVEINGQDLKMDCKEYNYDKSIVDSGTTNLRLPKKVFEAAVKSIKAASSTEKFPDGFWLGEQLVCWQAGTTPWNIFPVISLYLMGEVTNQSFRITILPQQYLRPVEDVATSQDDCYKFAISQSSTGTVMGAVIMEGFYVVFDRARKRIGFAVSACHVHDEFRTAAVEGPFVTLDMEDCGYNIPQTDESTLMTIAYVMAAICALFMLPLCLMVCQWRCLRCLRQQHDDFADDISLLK
Chain of Human recombinant GSK-3β (P49841 whole entry): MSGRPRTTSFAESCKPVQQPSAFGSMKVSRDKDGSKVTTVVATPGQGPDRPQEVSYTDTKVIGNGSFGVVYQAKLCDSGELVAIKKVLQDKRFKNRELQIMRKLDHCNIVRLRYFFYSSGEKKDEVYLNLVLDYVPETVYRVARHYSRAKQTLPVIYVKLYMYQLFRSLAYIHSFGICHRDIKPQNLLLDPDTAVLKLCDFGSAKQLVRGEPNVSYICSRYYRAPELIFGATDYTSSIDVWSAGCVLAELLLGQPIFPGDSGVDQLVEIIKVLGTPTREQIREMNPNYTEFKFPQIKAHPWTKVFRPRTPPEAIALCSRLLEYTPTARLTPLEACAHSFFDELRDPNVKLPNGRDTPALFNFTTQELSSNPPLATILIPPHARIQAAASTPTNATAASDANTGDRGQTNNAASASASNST

IC50 (β-secretase (BACE-1)) [µM] | IC50 (Human recombinant GSK-3β) [µM] | SMILES | number of β-tubulin positive cells (immature neuronal marker) [1] | number of MAP-2 positive cells (mature neuronal marker) [1]
– | – | CCNC1=NC(c2ccc(F)cc2)NC(=O)N1 (racemic) [Example 3, 6-(ethylamino)-4-(4-fluorophenyl)-3,4-dihydro-1,3,5-triazin-2(1H)-one] | significantly increased | –
36.8 ± 9.85 | 4.34 ± 0.63 | CCCNC1=NC(c2ccc(F)cc2)NC(=O)N1 (stereo not shown) [Example 6, 4-(4-fluorophenyl)-6-(propylamino)-3,4-dihydro-1,3,5-triazin-2(1H)-one] | – | significantly amplified
